Assay results: patent US9957254B2, “Cyclohexen-1-yl-pyridin-2-yl-1h-pyrazole-4-carboxylic acid derivatives and the use thereof as soluble guanylate cyclase activators” (Novartis AG, priority 2014, dated 2018)

What follows are compounds tested against T1, soluble guanylate cyclase (Homo sapiens, UniProt Q02153) (assay: CHO cellular assay (cGMP production, Cisbio cGMP HTRF)). Conditions: CHO K1 cells overexpressing human GUCYA3/GUCYB3 (clone 8E10), 1 mM IBMX, 20 uM ODQ, 1 h room temperature, listed 0.5 nM means actual EC50 ≤0.5 nM (quantification limit).
T1 construct: expressed in transfected cells
T1 sequence (Q02108 whole entry partner): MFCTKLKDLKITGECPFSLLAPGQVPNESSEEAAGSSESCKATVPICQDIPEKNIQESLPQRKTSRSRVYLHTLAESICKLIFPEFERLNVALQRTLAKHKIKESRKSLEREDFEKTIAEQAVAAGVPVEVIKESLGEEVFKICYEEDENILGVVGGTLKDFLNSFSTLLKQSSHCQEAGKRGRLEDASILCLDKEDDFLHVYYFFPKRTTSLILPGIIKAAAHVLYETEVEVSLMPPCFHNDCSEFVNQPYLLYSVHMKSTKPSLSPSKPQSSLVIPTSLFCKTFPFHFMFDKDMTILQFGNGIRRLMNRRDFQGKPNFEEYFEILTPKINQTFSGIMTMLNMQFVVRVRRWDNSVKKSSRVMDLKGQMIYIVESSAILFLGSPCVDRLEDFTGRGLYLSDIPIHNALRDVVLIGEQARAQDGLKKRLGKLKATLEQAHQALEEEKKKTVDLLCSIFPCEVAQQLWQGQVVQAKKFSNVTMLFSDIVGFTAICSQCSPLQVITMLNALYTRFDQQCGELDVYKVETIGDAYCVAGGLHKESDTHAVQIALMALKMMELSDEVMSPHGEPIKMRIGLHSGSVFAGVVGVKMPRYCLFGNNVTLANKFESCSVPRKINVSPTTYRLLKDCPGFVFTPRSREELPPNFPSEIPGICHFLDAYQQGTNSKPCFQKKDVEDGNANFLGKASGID
T1 sequence (Q02153 whole entry): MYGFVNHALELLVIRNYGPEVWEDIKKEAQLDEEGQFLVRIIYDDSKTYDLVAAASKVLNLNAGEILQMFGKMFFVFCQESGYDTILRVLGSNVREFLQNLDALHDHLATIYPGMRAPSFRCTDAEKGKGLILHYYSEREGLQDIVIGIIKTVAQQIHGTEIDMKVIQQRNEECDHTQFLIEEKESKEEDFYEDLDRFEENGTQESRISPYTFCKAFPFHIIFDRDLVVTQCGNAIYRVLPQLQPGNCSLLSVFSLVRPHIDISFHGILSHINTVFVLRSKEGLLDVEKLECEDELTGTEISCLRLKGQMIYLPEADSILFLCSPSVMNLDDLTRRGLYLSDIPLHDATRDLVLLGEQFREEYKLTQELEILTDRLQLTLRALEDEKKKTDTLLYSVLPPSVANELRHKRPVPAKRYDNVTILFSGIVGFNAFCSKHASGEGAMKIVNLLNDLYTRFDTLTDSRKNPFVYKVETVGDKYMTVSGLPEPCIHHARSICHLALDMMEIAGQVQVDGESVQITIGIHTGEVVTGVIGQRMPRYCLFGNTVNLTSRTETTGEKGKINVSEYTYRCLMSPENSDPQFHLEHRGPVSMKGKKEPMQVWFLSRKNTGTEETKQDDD
Type: cell-based
Source text: Chinese hamster ovary (CHO) cells overexpressing soluble guanylate cyclase were generated to test the effect of sGC activators in a cellular context. Human cDNAs for GUCYA3 (RefSeq: NM_000856.3) and GUCYB3 (RefSeq: NM_000857.1) were amplified by PCR from a HUVEC (Human Umbilical Vein Endothelial Cells) cDNA library and cloned into mammalian expression vectors. CHO K1 cells (ATCC CCL-61) were transfected using Lipofectamine 2000 following manufacturer's instructions and stably expressing clones were identified by antibiotic selection. CHO GUCY clone 8E10 was used for subsequent experiments.
Cells were seeded at a density of 3000 cells/well in white 384-well proxyplates (Perkin Elmer) and incubated overnight, then the medium was removed and cells were washed with assay buffer (HBSS, 0.1% BSA, 1 mM IBMX, 20 uM ODQ). sGC activators were serially diluted in DMSO, then diluted in assay buffer prior to adding to cells (10 ul/well, final DMSO concentration 0.5%). Cells were incubated with compounds for 1 h room temperature, then assayed for cGMP production using Cisbio cGMP HTRF kit (62GM2PEC) according to manufacturer's instructions.
The EC50s are calculated based on the amount of cGMP interpolated from the standard curve, using a 4-parameter sigmoidal dose-response.
Compounds of invention are active on sGC activation. Data on Table 1 collected using the assay of Biological Example 1. The minimum EC50 quantification limit of the assay is 0.5 nM, therefore any compound listed as having an EC50 value of 0.5 nM has a actual EC50 of ≤0.5 nM.
With `CCc1cc(C2CCN(C(=O)C3CC3)CC2)ccc1OCC1=C(c2cccc(-n3ncc(C(=O)O)c3C(F)(F)F)n2)CCCC1` [Example 8-1, 1-(6-(2-((4-(1-(cyclopropanecarbonyl)piperidin-4-yl)-2-ethylphenoxy)methyl)cyclohex-1-en-1-yl)pyridin-2-yl)-5-(trifluoromethyl)-1H-pyrazole-4-carboxylic acid] the EC50 was 5.5 nM. With `O=C(O)c1cnn(-c2cccc(C3=C(COc4ccc5c(c4)CCN(Cc4ccccn4)C5)CCCC3)n2)c1C(F)(F)F` [Example 8-2, 1-(6-(2-(((2-(pyridin-2-ylmethyl)-1,2,3,4-tetrahydroisoquinolin-6-yl)oxy)methyl)cyclohex-1-en-1-yl)pyridin-2-yl)-5-(trifluoromethyl)-1H-pyrazole-4-carboxylic acid] the EC50 was 34 nM. `CCc1c(C(=O)O)cnn1-c1cccc(C2=C(COc3ccc(C4CCN(C(=O)C5CC5)CC4)cc3C)CCCC2)n1` [Example 9, 1-(6-(2-((4-(1-(Cyclopropanecarbonyl)piperidin-4-yl)-2-methylphenoxy)methyl)cyclohex-1-en-1-yl)pyridin-2-yl)-5-ethyl-1H-pyrazole-4-carboxylic acid] was tested, and the EC50 was ≤ 0.5 nM. Work on `Cc1cc(C2CCN(C(=O)C3CC3)CC2)ccc1OCC1=C(c2cccc(-n3ncc(C(=O)O)c3C(F)(F)F)c2)CCCC1` [Example 10, 1-(6′-((4-(1-(Cyclopropanecarbonyl)piperidin-4-yl)-2-methylphenoxy)methyl)-2′,3′,4′,5′-tetrahydro-[1,1-biphenyl]-3-yl)-5-(trifluoromethyl)-1H-pyrazole-4-carboxylic acid] yielded an EC50 of 1 nM. `Cc1cc(C2CCN(C(=O)CN)CC2)ccc1OCC1=C(c2cccc(-n3ncc(C(=O)O)c3C(F)(F)F)n2)CCCC1` [Example 11, 1-(6-(2-((4-(1-(2-Aminoacetyl)piperidin-4-yl)-2-methylphenoxy)methyl)cyclohex-1-en-1-yl)pyridin-2-yl)-5-(trifluoromethyl)-1H-pyrazole-4-carboxylic acid] was tested, and the EC50 was 110 nM. `CCc1cc(OCC2=C(c3cccc(-n4ncc(C(=O)O)c4C(F)(F)F)n3)CCCC2(C)C)ccc1C1CCN(C(=O)C2CC2)CC1` [Example 14, 1-(6-(2-((4-(1-(Cyclopropanecarbonyl)piperidin-4-yl)-3-ethylphenoxy)methyl)-3,3-dimethylcyclohex-1-en-1-yl)pyridin-2-yl)-5-(trifluoromethyl)-1H-pyrazole-4-carboxylic acid] was tested, and the EC50 was 1 nM. For `Cc1cc(C2CCN(C(=O)C3CC3)CC2)ccc1OCC1=C(c2cccc(-n3ncc(C(=O)O)c3C(F)(F)F)n2)CCC1` [Example 21, 1-(6-(2-((4-(1-(Cyclopropanecarbonyl)piperidin-4-yl)-2-methylphenoxy)methyl)cyclopent-1-en-1-yl)pyridin-2-yl)-5-(trifluoromethyl)-1H-pyrazole-4-carboxylic acid], the EC50 was 2.4 nM. `Cc1cc(C2CCN(C(=O)N(C)C)CC2)ccc1OCC1=C(c2cccc(-n3ncc(C(=O)O)c3C(F)(F)F)n2)CCC1` [Example 23, 1-(6-(2-((4-(1-(Dimethylcarbamoyl)piperidin-4-yl)-2-methylphenoxy)methyl)cyclopent-1-en-1-yl)pyridin-2-yl)-5-(trifluoromethyl)-1H-pyrazole-4-carboxylic acid] showed an EC50 of 3.5 nM. Compound `Cc1cc(C2CCN(C(=O)CO)CC2)ccc1OCC1=C(c2cccc(-n3ncc(C(=O)O)c3C(F)(F)F)n2)CCC1` [Example 24-1, 1-(6-(2-((4-(1-(2-hydroxyacetyl)piperidin-4-yl)-2-methylphenoxy)methyl)cyclopent-1-en-1-yl)pyridin-2-yl)-5-(trifluoromethyl)-1H-pyrazole-4-carboxylic acid] has an EC50 of 19 nM. `CCC(=O)N1CCC(c2ccc(OCC3=C(c4cccc(-n5ncc(C(=O)O)c5C(F)(F)F)n4)CCC3)c(C)c2)CC1` [Example 24-2, 1-(6-(2-((2-Methyl-4-(1-propionylpiperidin-4-yl)phenoxy)methyl)cyclopent-1-en-1-yl)pyridin-2-yl)-5-(trifluoromethyl)-1H-pyrazole-4-carboxylic acid] gave an EC50 of 2.4 nM. Work on `COC(=O)N1CCC(c2ccc(OCC3=C(c4cccc(-n5ncc(C(=O)O)c5C(F)(F)F)n4)CCC3)c(C)c2)CC1` [Example 24-3, 1-(6-(2-((4-(1-(Methoxycarbonyl)piperidin-4-yl)-2-methylphenoxy)methyl)cyclopent-1-en-1-yl)pyridin-2-yl)-5-(trifluoromethyl)-1H-pyrazole-4-carboxylic acid] yielded an EC50 of 22 nM. Compound `Cc1cc(C2CCN(S(C)(=O)=O)CC2)ccc1OCC1=C(c2cccc(-n3ncc(C(=O)O)c3C(F)(F)F)n2)CCC1` [Example 24-4, 1-(6-(2-((2-Methyl-4-(1-(methylsulfonyl)piperidin-4-yl)phenoxy)methyl)cyclopent-1-en-1-yl)pyridin-2-yl)-5-(trifluoromethyl)-1H-pyrazole-4-carboxylic acid] has an EC50 of 2.4 nM. `Cc1cc(C2CCN(CC(F)(F)F)CC2)ccc1OCC1=C(c2cccc(-n3ncc(C(=O)O)c3C(F)(F)F)n2)CCC1` [Example 25, 1-(6-(2-((2-Methyl-4-(1-(2,2,2-trifluoroethyl)piperidin-4-yl)phenoxy)methyl)cyclopent-1-en-1-yl)pyridin-2-yl)-5-(trifluoromethyl)-1H-pyrazole-4-carboxylic acid] was tested, and the EC50 was 5 nM. With `CCc1cc(NCC2=C(c3cccc(-n4ncc(C(=O)O)c4C(F)(F)F)n3)CCCC2)ccc1C1CCN(C(=O)C2CC2)CC1` [Example 26, 1-(6-(2-(((4-(1-(Cyclopropanecarbonyl)piperidin-4-yl)-3-ethylphenyl)amino)methyl)cyclohex-1-en-1-yl)pyridin-2-yl)-5-(trifluoromethyl)-1H-pyrazole-4-carboxylic acid] the EC50 was ≤ 0.5 nM. For `Cc1cc(C2CCN(C(=O)C3CC3)CC2)ccc1NCC1=C(c2cccc(-n3ncc(C(=O)O)c3C(F)(F)F)n2)CCCC1` [Example 27-1, 1-(6-(2-(((4-(1-(Cyclopropanecarbonyl)piperidin-4-yl)-2-methylphenyl)amino)methyl)cyclohex-1-en-1-yl)pyridin-2-yl)-5-(trifluoromethyl)-1H-pyrazole-4-carboxylic acid], the EC50 was 2.4 nM. `O=C(O)c1cnn(-c2cccc(C3=C(CNc4ccc(C5CCN(C(=O)C6CC6)CC5)cc4)CCCC3)n2)c1C(F)(F)F` [Example 27-2, 1-(6-(2-(((4-(1-(Cyclopropanecarbonyl)piperidin-4-yl)phenyl)amino)methyl)cyclohex-1-en-1-yl)pyridin-2-yl)-5-(trifluoromethyl)-1H-pyrazole-4-carboxylic acid] was tested, and the EC50 was 5 nM.
